Patent US6020521A, “Macrolide LHRH antagonists” (Abbott Laboratories, priority 1998, dated 2000)

What follows are compounds tested against T1, LHRH rat pituitary receptor (Rattus norvegicus, UniProt P30969) (assay: LHRH rat pituitary receptor binding (pKI)). Conditions: receptor binding affinity, negative logarithm of the equilibrium dissociation constants.
T1 construct: from tissue; host or cells: rat pituitary
T1 sequence (P30969 1-327): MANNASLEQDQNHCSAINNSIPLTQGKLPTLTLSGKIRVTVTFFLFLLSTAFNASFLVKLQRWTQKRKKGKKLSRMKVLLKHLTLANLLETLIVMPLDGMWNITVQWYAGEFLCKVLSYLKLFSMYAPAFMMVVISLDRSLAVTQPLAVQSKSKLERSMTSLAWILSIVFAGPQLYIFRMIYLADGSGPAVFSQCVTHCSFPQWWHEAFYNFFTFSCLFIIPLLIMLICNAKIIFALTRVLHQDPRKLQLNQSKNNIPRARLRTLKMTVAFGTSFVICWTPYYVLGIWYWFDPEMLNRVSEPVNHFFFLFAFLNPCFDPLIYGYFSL
Procedure: Representative compounds of the present invention were evaluated in in vitro tests for LHRH rat pituitary receptor binding (pKI) and for LH inhibition from rat pituitary cells for antagonist potency (pA2). The tests employed the methods detailed in F. Haviv, et al. J. Med. Chem., 32: 2340-2344 (1989). The receptor binding affinity (pKI) is the negative logarithm of the equilibrium dissociation constants.

SMILES | Ki | p KI
CC[C@H]1OC(=O)[C@H](C)[C@@H](OC(=O)N2C(=O)OC[C@@H]2C)[C@H](C)[C@@H](O[C@@H]2O[C@H](C)C[C@H](NC(C)C)[C@H]2O)[C@](C)(OC)C[C@@H](C)C(=O)[C@H](C)[C@H]2N(CCc3ccc(Cl)cc3)C(=O)O[C@]12C [Example 7, 11-Deoxy-11-[carboxy(4-chlorophenethyl)amino]-5-O-(3'-bis-N-desmethyl-3'-N-isopropyl)desosaminyl-3-O-[4-(S)-methyl-oxazolidin-2-one]carbamoyl-6-O-methyl-erythronolide A 11,12-(cyclic carbamate)] | 3.55 nM | –
CC[C@H]1OC(=O)[C@H](C)[C@@H](OC(=O)N2C(=S)OC[C@@H]2C)[C@H](C)[C@@H](O[C@@H]2O[C@H](C)C[C@H](N(C)CC3CC3)[C@H]2O)[C@](C)(OC)C[C@@H](C)C(=O)[C@H](C)[C@H]2N(CCc3ccc(Cl)c(Cl)c3)C(=O)O[C@]12C [Example 41, 11-Deoxy-11-[carboxy(3,4-dichlorophenethyl)amino]-3-O-[4-(S)-methyl-oxazolidin-2-thione]carbamoyl-5-O-(3'-N-desmethyl-3'-N-cyclopropylmethyl)desosaminyl-6-O-methyl-erythronolide A 11,12-(cyclic carbamate)] | 10.2 nM | –
CCCN(C)[C@H]1C[C@@H](C)O[C@@H](O[C@@H]2[C@@H](C)[C@H](OC(=O)N3C(=O)OC[C@@H]3C)[C@@H](C)C(=O)O[C@H](CC)[C@@]3(C)OC(=O)N(CCc4ccc(Cl)cc4)[C@@H]3[C@@H](C)C(=O)[C@H](C)C[C@@]2(C)OC)[C@@H]1O [Example 27, 11-Deoxy-11-carboxy(4-chlorophenethyl)amino]-3-O-[4-(S)-methyl-oxazolidin-2-one]carbamoyl-5-O-(3'-N-desmethyl-3'-N-n-propyl)desosaminyl-6-O-methyl-erythronolide A 11,12-(cyclic carbamate)] | – | 9.60
CC[C@H]1OC(=O)[C@H](C)[C@@H](OC(=O)N2C[C@@H](C)OC2=O)[C@H](C)[C@@H](O[C@@H]2O[C@H](C)C[C@H](N(C)CC3CC3)[C@H]2O)[C@](C)(OC)C[C@@H](C)C(=O)[C@H](C)[C@H]2N(CCc3ccc(Cl)c(Cl)c3)C(=O)O[C@]12C [Example 39, 11-Deoxy-11-[carboxy(3,4-dichlorophenethyl)amino]-3-O-[5-(R)-methyl-oxazolidin-2-one]carbamoyl-5-O-(3'-N-desmethyl-3'-N-cyclopropylmethyl)desosaminyl-6-O-methyl-erythronolide A 11,12-(cyclic carbamate)] | 2.82 nM | –

Now from value to compound:

Ki | p KI | SMILES
0.0832 nM | – | CC[C@H]1OC(=O)[C@H](C)[C@@H](OC(=O)N2C(=O)OC[C@@H]2C)[C@H](C)[C@@H](O[C@@H]2O[C@H](C)C[C@H](N(C)C3CCC3)[C@H]2O)[C@](C)(OC)C[C@@H](C)C(=O)[C@H](C)[C@H]2N(CCc3ccc(F)c(Cl)c3)C(=O)O[C@]12C [Example 34, 11-Deoxy-11-[carboxy(3-chloro-fluorophenethyl)amino]-3-O-[4-(S)-methyl-oxazolidin-2-one]carbamoyl-5-O-(3'-N-desmethyl-3'-N-cyclobutyl)desosaminyl-6-O-methyl-erythronolide A 11,12-(cyclic carbamate)]
0.851 nM | – | CC[C@H]1OC(=O)[C@H](C)[C@@H](OC(=O)N2C(=O)OC[C@@H]2C)[C@H](C)[C@@H](O[C@@H]2O[C@H](C)C[C@H](N(C)C3CCCC3)[C@H]2O)[C@](C)(OC)C[C@@H](C)C(=O)[C@H](C)[C@H]2N(CCc3ccc(F)c(Cl)c3)C(=O)O[C@]12C [Example 35, 11-Deoxy-11-[carboxy(3-chloro-4-fluorophenethyl)amino]-3-O-[4-(S)-methyl-oxazolidin-2-one]carbamoyl-5-O-(3'-N-desmethyl-3'-N-cyclopentyl)desosaminyl-6-O-methyl-erythronolide A 11,12-(cyclic carbamate)]
